{"source": "paper doi:10.1101/2024.01.16.575974v2", "about": "“Structural insights into peptidoglycan hydrolysis by the FtsEX system in Escherichia coli during cell division” (biorxiv, 2025)", "key": {"EcoFtsEX [1]": {"target": "T1, EcoFtsEX (Escherichia coli, UniProt P0A9R7)", "T1 construct": "gene ftsE; full-length, His6-tagged (pTD68 his6-FtsEX), expressed in E. coli BL21(DE3) pLysS, DDM-solubilised, in peptidiscs; two FtsE and two FtsX; with Cell division protein FtsX", "T1 sequence (P0A9R7 1-222)": "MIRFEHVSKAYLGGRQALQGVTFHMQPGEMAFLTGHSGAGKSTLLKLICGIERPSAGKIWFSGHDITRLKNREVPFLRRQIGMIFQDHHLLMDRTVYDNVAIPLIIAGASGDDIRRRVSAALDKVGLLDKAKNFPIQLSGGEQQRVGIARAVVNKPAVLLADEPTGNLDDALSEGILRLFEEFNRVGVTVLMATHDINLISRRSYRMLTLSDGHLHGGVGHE", "T1 sequence (P0AC30 1-352 partner)": "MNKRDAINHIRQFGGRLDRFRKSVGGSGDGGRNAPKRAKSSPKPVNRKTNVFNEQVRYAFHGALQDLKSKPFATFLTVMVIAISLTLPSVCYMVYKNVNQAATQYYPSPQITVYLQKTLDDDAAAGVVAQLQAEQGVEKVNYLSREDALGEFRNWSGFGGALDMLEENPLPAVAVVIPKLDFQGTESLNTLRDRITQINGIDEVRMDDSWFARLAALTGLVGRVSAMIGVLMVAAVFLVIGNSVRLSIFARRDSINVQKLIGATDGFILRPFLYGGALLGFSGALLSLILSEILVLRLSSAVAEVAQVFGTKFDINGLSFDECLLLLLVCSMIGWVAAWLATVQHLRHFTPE", "assay": "complex stabilisation against precipitation (SDS-PAGE)", "type": "binding", "conditions": "2 mM nucleotide, pH 8.0"}, "EcoFtsEX/EnvC": {"target": "T2, EcoFtsEX/EnvC (Escherichia coli, UniProt P0A9R7, E163Q)", "T2 construct": "gene ftsE; full-length His6-FtsEX in peptidiscs plus EnvC delta34 (signal region removed, His6-SUMO tag cut), both expressed in E. coli BL21(DE3) pLysS; with Cell division protein FtsX", "T2 sequence (P0A9R7 1-222 E163Q)": "T1 sequence (P0A9R7 1-222) with E163Q", "T2 sequence (P0AC30 1-352 partner)": "T1 sequence (P0AC30 1-352 partner)", "T2 sequence (P37690 35-419 partner)": "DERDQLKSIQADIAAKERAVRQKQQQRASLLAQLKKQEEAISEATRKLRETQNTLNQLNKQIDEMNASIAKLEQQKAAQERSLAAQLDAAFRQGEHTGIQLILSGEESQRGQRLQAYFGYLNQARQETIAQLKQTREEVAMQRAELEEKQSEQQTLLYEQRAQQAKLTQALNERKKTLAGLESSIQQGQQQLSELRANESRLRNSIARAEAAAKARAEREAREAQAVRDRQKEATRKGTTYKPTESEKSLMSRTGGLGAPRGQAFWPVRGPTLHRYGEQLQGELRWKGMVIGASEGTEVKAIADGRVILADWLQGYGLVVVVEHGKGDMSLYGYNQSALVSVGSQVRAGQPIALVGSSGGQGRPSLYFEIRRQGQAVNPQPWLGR", "assay": "cryo-EM structure, […] Å", "type": "binding", "conditions": "2 mM ATP-Mg2+, peptidiscs; hydrolysis-deficient mutant, two bound nucleotides at FtsE"}, "SpFtsEX": {"target": "T3, SpFtsEX (Streptococcus pneumoniae, UniProt A0A0H2ZM82)", "T3 construct": "gene ftsE; His6-FtsEX (pTD68) expressed in E. coli BL21(DE3) pLysS, DDM-solubilised, peptidiscs, SEC; with Cell division protein FtsX", "T3 sequence (A0A0H2ZM82 1-230)": "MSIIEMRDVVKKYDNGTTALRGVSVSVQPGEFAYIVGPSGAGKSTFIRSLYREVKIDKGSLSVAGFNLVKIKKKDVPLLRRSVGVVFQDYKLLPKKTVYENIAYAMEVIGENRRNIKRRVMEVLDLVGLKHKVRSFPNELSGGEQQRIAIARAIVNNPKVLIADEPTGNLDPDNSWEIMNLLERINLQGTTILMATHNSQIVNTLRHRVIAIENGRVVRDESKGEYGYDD", "T3 sequence (Q04LE4 1-308 partner)": "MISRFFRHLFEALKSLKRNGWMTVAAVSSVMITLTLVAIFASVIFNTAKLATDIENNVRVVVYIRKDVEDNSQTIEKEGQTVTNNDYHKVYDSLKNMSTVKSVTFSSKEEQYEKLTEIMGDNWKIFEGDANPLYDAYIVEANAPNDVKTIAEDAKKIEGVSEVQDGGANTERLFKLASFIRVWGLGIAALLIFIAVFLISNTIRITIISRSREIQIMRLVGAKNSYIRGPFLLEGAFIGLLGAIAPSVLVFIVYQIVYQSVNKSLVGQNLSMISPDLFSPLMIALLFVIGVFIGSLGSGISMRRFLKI", "assay": "complex stabilisation (SEC yield, FtsE:FtsX stoichiometry on SDS-PAGE)", "conditions": "2 mM ATP, pH 8.0; indirect evidence of binding"}, "BsFtsEX": {"target": "T4, BsFtsEX (Bacillus subtilis, UniProt O34814)", "T4 construct": "gene ftsE; His6-FtsEX (pTD68) expressed in E. coli BL21(DE3) pLysS, DDM-solubilised, peptidiscs, SEC; with Cell division protein FtsX", "T4 sequence (O34814 1-228)": "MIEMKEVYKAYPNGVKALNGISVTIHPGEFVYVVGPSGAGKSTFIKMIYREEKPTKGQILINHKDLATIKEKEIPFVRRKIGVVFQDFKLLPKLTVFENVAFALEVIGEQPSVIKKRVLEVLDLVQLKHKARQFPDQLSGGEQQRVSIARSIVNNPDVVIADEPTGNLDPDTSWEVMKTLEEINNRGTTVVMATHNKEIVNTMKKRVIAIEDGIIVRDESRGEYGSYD", "T4 sequence (O34876 1-296 partner)": "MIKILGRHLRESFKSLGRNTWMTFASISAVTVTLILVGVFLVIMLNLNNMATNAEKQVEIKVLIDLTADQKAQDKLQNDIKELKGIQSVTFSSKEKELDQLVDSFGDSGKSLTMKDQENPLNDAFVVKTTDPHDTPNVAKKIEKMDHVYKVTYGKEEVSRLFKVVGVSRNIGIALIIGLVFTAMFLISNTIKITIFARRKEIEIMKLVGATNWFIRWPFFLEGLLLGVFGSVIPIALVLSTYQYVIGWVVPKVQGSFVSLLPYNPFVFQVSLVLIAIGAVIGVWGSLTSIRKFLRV", "assay": "complex stabilisation (SEC yield, FtsE:FtsX stoichiometry on SDS-PAGE)", "conditions": "2 mM ATP, pH 8.0; indirect evidence of binding"}, "PaeFtsEX": {"target": "T5, PaeFtsEX (Pseudomonas aeruginosa, UniProt Q9I6C0)", "T5 construct": "gene ftsE; His6-FtsEX (pTD68) expressed in E. coli BL21(DE3) pLysS, DDM-solubilised, peptidiscs, SEC; with Cell division protein FtsX", "T5 sequence (Q9I6C0 1-223)": "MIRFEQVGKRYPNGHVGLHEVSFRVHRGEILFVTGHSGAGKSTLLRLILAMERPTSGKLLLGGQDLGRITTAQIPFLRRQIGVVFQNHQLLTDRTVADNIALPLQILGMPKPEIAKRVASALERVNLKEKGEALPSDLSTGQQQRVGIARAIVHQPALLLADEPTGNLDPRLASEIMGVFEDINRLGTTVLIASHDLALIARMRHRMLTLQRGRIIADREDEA", "T5 sequence (Q9I6B9 1-335 partner)": "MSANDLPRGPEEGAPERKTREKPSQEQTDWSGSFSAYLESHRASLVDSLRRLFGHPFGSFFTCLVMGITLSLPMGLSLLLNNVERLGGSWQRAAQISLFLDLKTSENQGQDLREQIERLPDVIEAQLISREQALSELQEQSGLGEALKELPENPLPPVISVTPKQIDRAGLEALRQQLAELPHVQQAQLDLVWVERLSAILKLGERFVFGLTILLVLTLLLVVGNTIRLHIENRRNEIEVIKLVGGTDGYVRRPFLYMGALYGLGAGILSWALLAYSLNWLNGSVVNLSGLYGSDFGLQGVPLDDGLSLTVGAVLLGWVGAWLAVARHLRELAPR", "assay": "complex stabilisation (SEC yield, FtsE:FtsX stoichiometry on SDS-PAGE)", "conditions": "2 mM ATP, pH 8.0; indirect evidence of binding"}, "EcoFtsEX [2]": {"target": "T1, EcoFtsEX", "assay": "cryo-EM structure, […] Å", "type": "binding", "conditions": "3 mM ATPγS, 2 mM Mg2+, peptidiscs; two bound nucleotides at FtsE"}}, "note": "Where a chain is given by its changes, count along the chain named.", "data": [{"smiles": "Nc1ncnc2c1ncn2[C@@H]1O[C@H](COP(=O)(O)OP(=O)(O)O)[C@@H](O)[C@H]1O", "note": "[ADP]", "values": [{"measurement": "complex stabilisation against precipitation (SDS-PAGE)", "setting": "EcoFtsEX [1]", "result": "ATP analogues, including ATPγS, AMP-PNP, and ADP, also exhibited similar stabilizing effects"}]}, {"smiles": "Nc1ncnc2c1ncn2[C@@H]1O[C@H](COP(=O)(O)OP(=O)(O)NP(=O)(O)O)[C@@H](O)[C@H]1O", "note": "[AMP-PNP]", "values": [{"measurement": "complex stabilisation against precipitation (SDS-PAGE)", "setting": "EcoFtsEX [1]", "result": "ATP analogues, including ATPγS, AMP-PNP, and ADP, also exhibited similar stabilizing effects"}]}, {"smiles": "Nc1ncnc2c1ncn2[C@@H]1O[C@H](COP(=O)(O)OP(=O)(O)OP(=O)(O)O)[C@@H](O)[C@H]1O", "note": "[ATP]", "values": [{"measurement": "cryo-EM structure, 3.4 Å", "setting": "EcoFtsEX/EnvC", "result": "8W6J (ATP-bound FtsE^E163QX/EnvC)"}, {"measurement": "complex stabilisation (SEC yield, FtsE:FtsX stoichiometry on SDS-PAGE)", "setting": "SpFtsEX", "result": "regardless of the bacterial species, ATP consistently enhanced the stability of the complexes"}, {"measurement": "complex stabilisation (SEC yield, FtsE:FtsX stoichiometry on SDS-PAGE)", "setting": "BsFtsEX", "result": "regardless of the bacterial species, ATP consistently enhanced the stability of the complexes"}, {"measurement": "complex stabilisation (SEC yield, FtsE:FtsX stoichiometry on SDS-PAGE)", "setting": "PaeFtsEX", "result": "regardless of the bacterial species, ATP consistently enhanced the stability of the complexes"}]}, {"smiles": "Nc1ncnc2c1ncn2[C@@H]1O[C@H](COP(=O)(O)OP(=O)(O)OP(O)(O)=S)[C@@H](O)[C@H]1O", "note": "[ATPγS]", "values": [{"measurement": "cryo-EM structure, 3.7 Å", "setting": "EcoFtsEX [2]", "result": "8W6I (ATPγS bound FtsEX)"}]}]}
